In patent US20070128217A1 (priority 2003, published 2007):

Columns and labels:
[1] = tested on: antibodies in sera from SARS patients (sera 1a, 1b, 2, 6, 37, 62, London, SARS-yellow, SARS-green); assay type: binding, human; set-up: Binding of serum 6 to linear peptides of protein X1 of SARS-CoV Urbani / Binding of serum 37 to linear peptides of protein X1 of SARS-CoV Urbani / Binding of serum 6 to looped/cyclic peptide (PEPSCAN-ELISA) / Binding of serum 37 to looped/cyclic peptide (PEPSCAN-ELISA) / Binding of serum 37 to looped/cyclic peptides of protein X1 of SARS-CoV Urbani / Binding of serum 6 to linear peptides of protein X2 / Binding of serum 37 to linear peptides of protein X2 / Binding of serum 37 to looped/cyclic peptides of protein X2 of SARS-CoV Urbani / Binding of serum 6 to linear peptides of protein M of SARS-CoV Urbani / Binding of serum 37 to linear peptides of protein M of SARS-CoV Urbani / Binding of serum 6 to looped/cyclic peptides of protein M of SARS-CoV Urbani / Binding of serum 37 to looped/cyclic peptides of protein M of SARS-CoV Urbani / Binding of serum 6 to linear peptides of protein X3 of SARS-CoV Urbani / Binding of serum 37 to linear peptides of protein X3 of SARS-CoV Urbani / Binding of serum 37 to looped/cyclic peptides of protein X3 of SARS-CoV Urbani / Binding of serum 6 to linear peptides of protein X4 of SARS-CoV Urbani / Binding of serum 37 to linear peptides of protein X4 of SARS-CoV Urbani / Binding of serum 37 to looped/cyclic peptides of protein X4 of SARS-CoV Urbani / Binding of serum 6 to linear peptides of protein X5 of SARS-CoV Urbani / Binding of serum 37 to linear peptides of protein X5 of SARS-CoV Urbani / Binding of serum 37 to looped/cyclic peptides of protein X5 of SARS-CoV Urbani / Binding of serum 6 to linear peptides of protein N of SARS-CoV Urbani / Binding of serum 37 to linear peptides of protein N of SARS-CoV Urbani / Binding of serum 6 to linear peptide (PEPSCAN-ELISA) / Binding of serum 1a to looped/cyclic peptides of protein N of SARS-CoV Urbani / Binding of serum 1b to looped/cyclic peptides of protein N of SARS-CoV Urbani / Binding of serum 2 to looped/cyclic peptides of protein N of SARS-CoV Urbani / Binding of serum 6 to looped/cyclic peptides of protein N of SARS-CoV Urbani / Binding of serum 37 to looped/cyclic peptides of protein N of SARS-CoV Urbani / Binding of serum 62 to looped/cyclic peptides of protein N of SARS-CoV Urbani / Binding of serum London to looped/cyclic peptides of protein N of SARS-CoV Urbani / Binding of serum SARS-green to looped/cyclic peptides of protein N of SARS-CoV Urbani: unit not given here
[2] = tested on: recombinant human anti-SARS-CoV antibody 03-018; assay type: binding; set-up: Binding of antibody 03-018 to linear peptides of the N protein of SARS-CoV Urbani / Binding of antibody 03-018 to looped/cyclic peptides of the N protein of SARS-CoV Urbani: unit not given here
[3] = tested on: control sera (pooled serum of ten healthy LUMC hospital workers; commercial negative donor pooled serum from the Dutch bloodbank); assay type: binding, human; set-up: Binding of Control serum LUMC to linear peptides / Binding of Control serum Blood-bank to linear peptides / Binding of Control serum LUMC to looped peptides / Binding of Control Serum Blood-Bank to Looped peptides / Binding of Control serum LUMC to linear peptides of the protein M of SARS-CoV Urbani / Binding of Control serum Blood-bank to linear peptides of the protein M of SARS-CoV Urbani / Binding of Control serum LUMC to looped peptides of the protein M of SARS-CoV Urbani / Binding of Control Serum Blood-Bank to Looped peptides of the protein M of SARS-CoV Urbani: unit not given here
[4] = tested on: rabbit serum obtained by immunizing a rabbit with the SARS-CoV strain Frankfurt 1; assay type: binding; set-up: Binding of a rabbit serum to linear peptides / Binding of a rabbit serum to looped peptides / Rabbit serum linear peptides / Rabbit serum looped peptides / Binding of a rabbit serum to linear peptides of protein N of SARS-CoV Urbani (Rabbit serum linear peptides) / Binding of a rabbit serum to looped/cyclic peptides of protein N of SARS-CoV Urbani (Rabbit serum looped peptides): unit not given here

| Sequence | Binding of serum 1a to linear peptides of protein N of SARS-CoV Urbani [1] | Binding of serum 1a to looped/cyclic peptides of protein N of SARS-CoV Urbani [1] | Binding of serum 1b to linear peptides of protein N of SARS-CoV Urbani [1] | Binding of serum 1b to looped/cyclic peptides of protein N of SARS-CoV Urbani [1] | Binding of serum 2 to linear peptides of protein N of SARS-CoV Urbani [1] | Binding of serum 2 to looped/cyclic peptides of protein N of SARS-CoV Urbani [1] | Binding of serum 6 to linear peptides of protein N of SARS-CoV Urbani [1] | Binding of serum 6 to looped/cyclic peptides of protein N of SARS-CoV Urbani [1] | Binding of serum 37 to linear peptides of protein N of SARS-CoV Urbani [1] | Binding of serum 37 to looped/cyclic peptides of protein N of SARS-CoV Urbani [1] | Binding of serum 62 to linear peptides of protein N of SARS-CoV Urbani [1] | Binding of serum 62 to looped/cyclic peptides of protein N of SARS-CoV Urbani [1] | Binding of serum London to linear peptides of protein N of SARS-CoV Urbani [1] | Binding of serum London to looped/cyclic peptides of protein N of SARS-CoV Urbani [1] | Binding of serum SARS-green to linear peptides of protein N of SARS-CoV Urbani [1] | Binding of serum SARS-green to looped/cyclic peptides of protein N of SARS-CoV Urbani [1] | Binding of serum SARS-yellow to linear peptides of protein N of SARS-CoV Urbani [1] | Binding of serum SARS-yellow to looped/cyclic peptides of protein N of SARS-CoV Urbani [1] | Binding of antibody 03-018 to linear peptides of the N protein of SARS-CoV Urbani [2] | Binding of antibody 03-018 to looped/cyclic peptides of the N protein of SARS-CoV Urbani [2] | other results |
| --- | --- | --- | --- | --- | --- | --- | --- | --- | --- | --- | --- | --- | --- | --- | --- | --- | --- | --- | --- | --- | --- |
| YGANKEGIVWVATEG | 0.3 | 0.4 | 0.1 | 0.3 | 0.2 | 0.5 | 0.2 | 0.3 | 0.8 | 0.8 | 0.7 | 0.7 | 0.4 | 0.4 | 0.4 | 0.4 | 0.7 | 0.7 | 0.1 | 0.2 | Binding of Control Serum Blood-Bank to Looped peptides [3]: 0.7; Binding of Control serum Blood-bank to linear peptides [3]: 0.6; Binding of Control serum LUMC to linear peptides [3]: 0.6; Binding of Control serum LUMC to looped peptides [3]: 0.7; Binding of a rabbit serum to linear peptides of protein N of SARS-CoV Urbani (Rabbit serum linear peptides) [4]: 0.1; Binding of a rabbit serum to looped/cyclic peptides of protein N of SARS-CoV Urbani (Rabbit serum looped peptides) [4]: 0.5 |
| YHGAIKLDDKDPQFK | 0.3 | 0.2 | 0.2 | 0.1 | 0.3 | 0.2 | 0.2 | 0.1 | 0.8 | 0.4 | 1.6 | 0.3 | 0.7 | 0.3 | 0.9 | 0.1 | 0.7 | 0.1 | 0.1 | 0.2 | Control Serum Blood-Bank Looped peptides [3]: 0.4; Control serum Blood-bank linear peptides [3]: 0.9; Control serum LUMC linear peptides [3]: 0.9; Control serum LUMC looped peptides [3]: 0.3; Binding of a rabbit serum to linear peptides of protein N of SARS-CoV Urbani (Rabbit serum linear peptides) [4]: 0.2; Binding of a rabbit serum to looped/cyclic peptides of protein N of SARS-CoV Urbani (Rabbit serum looped peptides) [4]: 0.3 |
| YKHWPQIAQFAPSAS | 0.3 | 0.5 | 0.1 | 0.3 | 0.2 | 0.5 | 0.2 | 0.3 | 0.8 | 0.7 | 0.7 | 0.7 | 0.6 | 0.5 | 0.4 | 0.4 | 0.7 | 0.6 | 0.1 | 0.2 | Control Serum Blood-Bank Looped peptides [3]: 0.8; Control serum Blood-bank linear peptides [3]: 0.9; Control serum LUMC linear peptides [3]: 0.7; Control serum LUMC looped peptides [3]: 0.8; Binding of a rabbit serum to linear peptides of protein N of SARS-CoV Urbani (Rabbit serum linear peptides) [4]: 0.1; Binding of a rabbit serum to looped/cyclic peptides of protein N of SARS-CoV Urbani (Rabbit serum looped peptides) [4]: 0.5 |
| YNVTQAFGRRGPEQT |  | 0.3 |  | 0.2 |  | 0.3 |  | 0.1 |  | 0.5 |  | 0.3 |  | 0.3 |  | 0.2 |  | 0.3 | 0.1 | 0.2 | Binding of serum 1a to linear peptide (PEPSCAN-ELISA) [1]: 0.3; Binding of serum 1b to linear peptide (PEPSCAN-ELISA) [1]: 0.1; Binding of serum 2 to linear peptide (PEPSCAN-ELISA) [1]: 0.2; Binding of serum 6 to linear peptide (PEPSCAN-ELISA) [1]: 0.2; Binding of serum 37 to linear peptide (PEPSCAN-ELISA) [1]: 0.7; Binding of serum 62 to linear peptide (PEPSCAN-ELISA) [1]: 0.7; Binding of serum London to linear peptide (PEPSCAN-ELISA) [1]: 0.5; Binding of serum SARS-green to linear peptide (PEPSCAN-ELISA) [1]: 0.6; Binding of serum SARS-yellow to linear peptide (PEPSCAN-ELISA) [1]: 0.6; Binding of Control Serum Blood-Bank to Looped peptides [3]: 0.5; Binding of Control serum Blood-bank to linear peptides [3]: 0.7; Binding of Control serum LUMC to linear peptides [3]: 0.6; Binding of Control serum LUMC to looped peptides [3]: 0.5; Recognition of the peptide by the rabbit serum [4]: recognized |
